Data set [1] concerns glucose metabolism ability. The following applies: rat, in vivo, iv.
Procedure: Fasted rats (male, SD rats) as experimental animals were divided into four groups (n=4 per group). The above-prepared ^13C-glucose solutions were individually intravenously administered to the rats in each group (1-^13-Glc-administration group, 2-^13C-Glc-administration group, 3-^13C-Glc-administration group, and U-^13-Glc-adrainistration group) in an amount of 1 mL/kg. Expired air was collected before the administration of each ^13C-glucose solution (0 minutes) and at each point in time (10, 20, 30, 40, 50, 60, 80, 100, and 120 minutes) after the administration of each ^13C-glucose solution, Δ^13C(‰) was determined with a mass spectrometer for expired air analysis (ABCA: produced by Sercon) from the concentration of ^13CO2 excreted in the expired air.
The Δ^13C(‰) was determined by measuring the ^13CO2/^12CO2 concentration ratio (δ^13C value) in the expired air before the administration of each ^13C-glucose solution (0 minutes) and in the expired air at each point in time for collecting the expired air (t minutes) after the administration of each ^13C-glucose solution, and calculating Δ^13C(‰) from the difference between the δ^13C value (δ^13Ct) at each collection point in time (t) and the δ^13C value (δ^13C0) before the administration (δ^13Ct−δ^13C0) (the same applies to the below-described Experimental Examples).
Data set [2] deals with glucose metabolism ability. The experiment in a line: Breath test under fasting and glucose-loaded conditions. Type of data set: in vivo, rats (OLETF, LETO). As for the experimental part:
OLETF rats, which are diabetic animal models, were used as experimental animals, and LETO rats were used as a control. More specifically, after being fasted for 20 hours, Group 1 (control group: […], male, n=5) and Group 2 (diabetes group; OLETF rats, male, n=6) were subjected to the following test.
An aqueous U-^13C-glucose solution (50 μmol/4 mL/kg) was orally administered to Group 1 (control group) and Group 2 (diabetes group) under fasting conditions. In each group, expired air was collected before the U-^13C-glucose administration (0 minutes) and at each point in time (10, 20, 30, 40, 50, 60, 80, 100, and 120 minutes) after the U-^13C-glucose administration. Δ^13C(‰) was determined with a mass spectrometer for expired air analysis (ABCA: produced by Sercon) from the concentration of ^13CO2 excreted in the expired air.
• (2-2-1) An aqueous glucose solution (450 mg/4 mL/kg) and an aqueous U-^13C-glucose solution (50 μmol/4 mL/kg) were orally administered simultaneously to the experimental animals of (1), i.e., Group 1 (control group) and Group 2 (diabetes group). As in (2-1), expired air was collected in each group before the U-^13C-glucose administration (0 minutes) and at each, point in time (10, 20, 30, 40, 50, 60, 80, 100, and 120 minutes) after the U-^13C-glucose administration. Δ^13C(‰) was determined from the concentration of ^13CO2 excreted in the expired air. […]

Data set [3] relates to glucose metabolism ability. As to the kind of experiment: Evaluation of treatment effect of a therapeutic agent for diabetes with U-13C-glucose breath test. Format: in vivo, ZDF rats. The following applies: 300 mg/kg oral for three days; for expired air pattern (changes in the Δ13C(‰)) after vs before administration: non-fasting, FIG. 12. As for the experimental part:
Three groups of ZDF rats (Group A: healthy group (n=4), Group B: diabetes severe onset group (n=6), and Group C: diabetes moderate onset group (n=6)) were used as experimental animals. In the experiment, these ZDF rats were allowed free access to water and feed (containing saccharide, fat, and protein) (MF: Oriental Yeast Co., Ltd.). More specifically, the following experiment was performed under non-fasting conditions.
Metformin (Wako Pure Chemical Industries, Ltd., which is an active ingredient of biguanide therapeutic agents for diabetes (generic name: Melbin), was orally administered to the rats of these groups in an amount of 300 mg/kg every morning for three days. A U-^13C-glucose solution prepared by the method described in (1) of Experimental Example 1 was intravenously administered 3 hours after the administration of metformin on day 3.
Expired air was collected in the rats of each group before the U-^13-glucose administration (0 minutes) and at each point in time (10, 20, 30, 40, 50, 60, 80, 100, and 120 minutes) after the U-^13C-glucose administration. Δ^13(‰) was determined with a mass spectrometer for expired air analysis (ABCA: produced by Sercon) from the concentration of ^13CO2 excreted in the expired air.

For data set [4], the system named is glucose metabolism ability. The experiment in a line: Evaluation of treatment effect after administration of insulin with 1-13C-glucose breath test. Type of data set: in vivo, rats (Wistar. The note with it: STZ rats, FIG. 13. The procedure: A control group (Wistar rats, male, n=3) and a type 1 diabetes group (STZ rats, male, n=3) were used as experimental animals. In the experiment, these rats were allowed free access to water and feed (containing saccharide, fat, and protein) (MF: Oriental Yeast Co., Ltd.). More specifically, the following experiment was performed under non-fasting conditions.
Rats one week after STZ (streptosocin: SIGMA) were intravenously administered in an amount of 65 mg/mL/kg was used as the type 1 diabetes group (STZ rats).
Insulin (SIGMA) was subcutaneously administered to the type 1 diabetes group in an amount of 30 U/body. […] Expired air was collected in the rats of the groups (control group, type 1 diabetes group, insulin-administered 4 h-diabetes group, and insulin-administered 24 h-diabetes group) before the 1-^13C-glucose administration (0 minutes) and at each point in time (10, 20, 30, 40, 50, 60, 80, 100, and 120 minutes) after the 1-^13C-glucose administration. Δ^13C(‰) was determined with a mass spectrometer for expired air analysis (ABCA: produced by Sercon) from the concentration of ^13CO2 excreted in the expired air.

With `OC[C@H]1OC(O)[C@H](O)[13C@@H](O)[C@@H]1O` (stereo partly drawn) [3-^13C-glucose], in data set [1], the “Δ13C(‰) in the expired air up to 30 minutes after the glucose solution administration (rank among 13C-glucoses)” value is given as “highest”.

In the case of `OC[C@H]1OC(O)[C@H](O)[C@@H](O)[C@@H]1O` (stereo partly drawn) [U-^13C-glucose], the “difference between the Δ13C(‰) value of Group 1 (control group) and Group 2 (diabetes group)” value in data set [2] (fasting conditions, oral 50 μmol/4 mL/kg, FIG. 6) is listed as “small”. In data set [2] (rat, in vivo), the “difference in the expired air response between Group 1 (control group) and Group 2 (diabetes group)” value is given as “further widened”; the “expired air pattern of Group 1 (control group) compared with Group 2 (diabetes group)” value is on record as “significantly high”.

Consider `CN(C)C(=N)N=C(N)N` [therapeutic agent for diabetes, Metformin], for which the “expired air pattern (changes in the Δ13C(‰)) after vs before administration” value in data set [3] (Group B diabetes severe onset) and in data set [3] (Group C diabetes moderate onset) was “higher values” throughout. Further, in data set [3] (diabetes onset groups B and C), the glucose metabolism ability result was “enhanced”.

With “insulin: Insulin (SIGMA), subcutaneously administered”, the “Δ13C(‰) compared with control group” value in data set [4] (4 hours after 30 U/body subcutaneous) was “almost the same as that of the control group”. In data set [4] (24 hours after 30 U/body subcutaneous), the “expired air pattern (change in the Δ13C(‰))” value is recorded as “low value”.

Source of the values: patent publication US10228365B2, “Method for measuring carbohydrate metabolism ability, and composition for use in said method” (priority 2012, dated 2019).
